Laboratory results taken from article PMC7409209, “Biosynthesis and Antimicrobial Activity of Pseudodesmin and Viscosinamide Cyclic Lipopeptides Produced by Pseudomonads Associated with the Cocoyam Rhizosphere” (Microorganisms, 2020).

How the values were obtained:
P. myriotylum CMR1 = test: Fungal plug-CLP droplet assay (growth inhibition and microscopy); assay type: cell-based, Pythium myriotylum; conditions: for Effect on growth of P. myriotylum mycelium (inhibition zone): all concentrations tested (100 nM, 1, 10, 25, 50 µM), 48 h, 28 °C, n = 5
From the text: (§1) The cocoyam rhizosphere isolate, P. myriotylum CMR1 [42], was maintained on Potato Dextrose Agar (PDA) for three days prior to use. The bean root rot pathogen, R. solani AG2-2 CuHav-Rs18 [43], was maintained on the same media for four days before use. The fungal plug-CLP method was used. Sterile microscopic glass slides were covered with a thin, flat layer of water agar (Bacto agar; Difco) and placed in a plastic Petri dish containing a moist sterile filter paper. An agar plug (diameter = 5 mm) taken from an actively growing colony of R. solani or P. myriotylum and placed on top at the center of each glass slide. Stock solutions of purified CLPs were made by dissolution in Dimethyl sulfoxide (DMSO). Serial dilutions of […], 1 µM, 10 µM, 25 µM and 50 µM were prepared using sterile milliQ water. For each dilution, two droplets (15 μL each) of purified CLP (WLIP, pseudodesmin or viscosinamide) were placed on two sides of the glass slide (about 2 cm from the fungal plug). For the control treatment, 0.5% DMSO was used. All plates were incubated for 48 h (P. myriotylum) or 72 h (R. solani) at 28 °C before evaluation under an Olympus BX51 microscope. The images were processed using TopView software. Using a vernier caliper, the inhibition zones were measured as the distance between the CLP droplet and the growing edge of the pathogen. The growth inhibition effect of pure compounds towards both plant pathogens was expressed relative to the mycelial growth in the control. Five replicates of each slide were used. Representative photos are shown.

R. solani [1] = test: Pathogen perception experiment (one CLP droplet); assay type: cell-based; conditions: one 15 µL CLP droplet 2 cm from the plug, other side blank
Experimental: (§2) For pathogen perception experiments, the afore-described plug-CLP droplet method was employed with slight modifications. Only one 15 µL CLP droplet was introduced 2 cm away from the fungal plug, while the other side of the plug remained blank. Results were assessed by observing whether or not the pathogen only grew towards the CLP droplet or in both directions. Pathogen-CLP interaction was evaluated microscopically and pictures were taken.

P. myriotylum = test: Pathogen perception experiment (one CLP droplet); assay type: cell-based, Pythium myriotylum; conditions: one 15 µL CLP droplet 2 cm from the plug, other side blank
Experimental: as §2

[2] = system: R. solani AG2-2 CuHav-Rs18; test: Fungal plug-CLP droplet assay (growth inhibition and microscopy); assay type: cell-based
From the text: as §1

[3] = system: six Gram-positive bacterial strains; conditions: cited from earlier work
From the text: Viscosinamide and pseudodesmin CLPs are neutral, have similar amino acid (AA) composition and only differ from each other by the stereochemistry on the 5th AA [30]. […] A recent study tested the antibacterial activity of 20 novel synthesized pseudodesmin A analogs and reported a mode of action determined by the macrocycle closed by an ester bond and the critical length of the β-OH fatty acid chain capping the N-terminus.

R. solani [4] = conditions: cited from earlier work
From the text: (§3) Antimicrobial activities of Viscosin-group CLPs have been reported, including antibacterial activity. […] When challenged with viscosinamide, cellular changes were detected in the mycelia of both P. ultimum and R. solani.

Pythium ultimum = conditions: cited from earlier work
From the text: as §3

[5] = purified viscosinamide produced by P. fluorescens DR54

## White Line-Inducing Principle [WLIP, reference compound]
P. myriotylum CMR1
  Effect on growth of P. myriotylum mycelium (inhibition zone): visual inhibition zones that could not be easily measured
P. myriotylum CMR1; concentration not specified
  Hyphal morphology of P. myriotylum (microscopy): hyphal disintegration, timely evasion and an absence of branching
R. solani [1]
  Perception of the CLP by R. solani (direction of growth): appeared not to recognize WLIP but grew towards it until hyphal disintegration occurred
P. myriotylum
  Perception of the CLP by P. myriotylum (direction of growth): grew evenly on sides with or without the CLP
[2]; 100 nM, 72 h, 28 °C
  Visual inhibition zone, R. solani AG 2-2: slight inhibition zone
[2]; highest concentration (50 µM)
  Visual inhibition zone, R. solani AG 2-2: strong inhibition
[2]; hyphae growing towards the compound, concentration not specified
  Hyphal morphology of R. solani (microscopy): increased branching as they grew in the direction of the compound
[2]; intermediate concentrations
  Visual inhibition zone, R. solani AG 2-2: unclear
[2]; upon contact with the compound, concentration not specified
  Hyphal morphology of R. solani (microscopy): disintegration of hyphae was observed

## pseudodesmin A
P. myriotylum CMR1; 100 nM, 10 µM and 25 µM
  Hyphal morphology of P. myriotylum (microscopy): increased/hyper branching, hyphal distortion and CLP evasion
P. myriotylum CMR1
  Effect on growth of P. myriotylum mycelium (inhibition zone): significantly inhibited pathogen growth
[3]
  Antibacterial activity, pseudodesmin compared with viscosinamide: equal activity
[2]; 100 nM, 72 h, 28 °C
  Visual inhibition zone, R. solani AG 2-2: visual inhibition zone
[2]; 0.1, 1, 10, 25 and 50 µM
  Hyphal morphology of R. solani (microscopy): CLP evasion by the pathogen, hyphae distortion and the disintegration of hyphae with debris observed on the slide
[2]; higher concentrations of 1, 10, 25 and 50 µM, compared with 100 nM
  Visual inhibition zone, R. solani AG 2-2: became enhanced

## viscosinamide A
P. myriotylum CMR1; 50 µM
  Hyphal morphology of P. myriotylum (microscopy): enhanced elongation of primary mycelium and the formation of convergent structures by mycelia
P. myriotylum CMR1
  Effect on growth of P. myriotylum mycelium (inhibition zone): enhanced the growth of P. myriotylum mycelium without any visible inhibition zone
[3]
  Antibacterial activity, pseudodesmin compared with viscosinamide: equal activity
[2]; 50 µM
  Hyphal morphology of R. solani (microscopy): mycelia distortion and disintegration was observed in combination with a coordinated formation of melanized structures by multiple primary hyphae
[2]; all concentrations tested (100 nM-50 µM)
  Visual inhibition zone, R. solani AG 2-2: no visual inhibition zone was observed in treatments with viscosinamide except at 10 µM
[2]; all concentrations tested except 50 µM
  Hyphal morphology of R. solani (microscopy): CLP evasion, hyphal distortion and the rupturing of contents
R. solani [4]; fluorescent stains
  Cellular changes in mycelia of R. solani: extensive branching, increased hyphal septation and swelling and decreased the hydrophobicity of cell walls and membranes
R. solani [4]; [5]
  Effect on growth of R. solani: reduced fungal growth and the aerial mycelium development
Pythium ultimum; fluorescent stains
  Cellular changes in mycelia of P. ultimum: extensive branching, increased hyphal septation and swelling and decreased the hydrophobicity of cell walls and membranes
Pythium ultimum; [5]
  Effect on growth of Pythium ultimum: reduced fungal growth and the aerial mycelium development
